Reference: the supplement of paper PMC10307832

How the values were obtained:
Assay in all cases: relative viability (nuclei count vs DMSO), 5 days (fraction); higher = more cells survive
[1] = compound: CC[C@H](CO)Nc1nc(NCc2ccccc2)c2ncn(C(C)C)c2n1 [Seliciclib] + Cc1cc(Nc2cc(N3CCN(C)CC3)nc(Sc3ccc(NC(=O)C4CC4)cc3)n2)n[nH]1 [Tozasertib] (partner 0.1 µM)
Method in brief: (§1)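 For relative viability, nuclei counts in treated wells were divided by those in vehicle wells. Lung cancer cell lines had been pin-tool dosed in 1536-well plates the day after seeding and cultured for 5 days, then fixed and stained in one step (final 0.05% Triton X-100, 1% formaldehyde, 1 ug/ml Hoechst) and imaged at 4×. Doses were one drug alone or a fixed anchor-drug dose plus five library-drug doses (not always all listed) in √10 steps, and values are duplicate-plate medians.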

[2] = compound: CC[C@H](CO)Nc1nc(NCc2ccccc2)c2ncn(C(C)C)c2n1 [Seliciclib] + N=C(N)NC(=N)NCCc1ccccc1 [Phenformin] (partner 250 µM)
Method in brief: as §1

[3] = compound: CC[C@H](CO)Nc1nc(NCc2ccccc2)c2ncn(C(C)C)c2n1 [Seliciclib] + CC1(C)CCC(c2ccc(Cl)cc2)=C(CN2CCN(c3ccc(C(=O)NS(=O)(=O)c4ccc(N[C@H](CCN5CCOCC5)CSc5ccccc5)c(S(=O)(=O)C(F)(F)F)c4)cc3)CC2)C1 [Navitoclax] (partner 0.5 µM)
Method in brief: as §1

[4] = compound: CC[C@H](CO)Nc1nc(NCc2ccccc2)c2ncn(C(C)C)c2n1 [Seliciclib]
Method in brief: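 Hoechst staining, done together with fixation and permeabilisation, marked nuclei for 4× imaging and MetaXpress counting. This followed 5 days without medium change after lung cancer cell lines, kept overnight at 37 °C in 1536-well plates, were pinned with five library-drug doses (not always all listed) spaced by √10 on vehicle-anchored plates. Viability is the ratio of treated-well to vehicle-well nuclei, expressed as a median across plates. Plates passed only at control CV below 25% with at least one doubling.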

Row | Cell Line | relative viability ([1]; first compound 0.08 µM) | relative viability ([1]; first compound 0.253 µM) | relative viability ([1]; first compound 0.8 µM) | relative viability ([1]; first compound 2.53 µM) | relative viability ([1]; first compound 8 µM) | relative viability ([2]; first compound 0.08 µM) | relative viability ([2]; first compound 0.253 µM) | relative viability ([2]; first compound 0.8 µM) | relative viability ([2]; first compound 2.53 µM) | relative viability ([2]; first compound 8 µM) | relative viability ([3]; first compound 0.08 µM) | relative viability ([3]; first compound 0.253 µM) | relative viability ([3]; first compound 0.8 µM) | relative viability ([3]; first compound 2.53 µM) | relative viability ([3]; first compound 8 µM) | relative viability ([4]; 0.08 µM) | relative viability ([4]; 0.253 µM) | relative viability ([4]; 0.8 µM) | relative viability ([4]; 2.53 µM) | relative viability ([4]; 8 µM)
1 | 201T | 0.948 | 0.959 | 0.893 | 0.964 | 0.745 | 0.413 | 0.441 | 0.47 | 0.383 | 0.418 | 1.18 | 1.17 | 1.2 | 1.2 | 1.13 | 0.982 | 1.06 | 0.959 | 0.845 | 0.883
2 | A549 |  |  |  |  |  | 0.154 |  | 0.183 | 0.171 | 0.127 | 1.08 | 1.06 | 1.21 | 1.19 | 0.925 | 0.914 | 0.985 | 0.931 | 0.906 | 0.81
3 | A-427 | 0.245 | 0.202 | 0.187 | 0.2 | 0.192 | 0.325 | 0.354 | 0.307 | 0.276 | 0.295 | 1.01 | 0.95 | 0.809 | 0.946 | 0.95 | 1.03 | 1.02 | 1.02 | 0.883 | 0.967
4 | ABC-1 | 0.149 | 0.131 | 0.189 | 0.186 | 0.207 | 0.251 | 0.257 | 0.234 | 0.281 | 0.222 |  |  |  |  |  | 0.995 | 1.12 | 1 | 0.615 | 0.582
5 | BEN | 0.451 | 0.481 | 0.585 | 0.502 | 0.468 | 0.268 | 0.249 | 0.125 | 0.284 | 0.227 | 0.0594 |  | 0.0808 | 0.213 | 0.0793 | 1.04 | 0.82 | 1.03 | 0.907 | 0.817
6 | CAL-12T | 0.297 | 0.313 | 0.294 | 0.247 | 0.234 | 0.604 | 0.789 | 0.612 | 0.53 | 0.376 | 1.25 |  | 1.04 | 1.03 | 1.06 | 0.986 | 1.11 | 0.922 | 0.934 | 0.641
7 | COR-L23 | 0.224 | 0.234 | 0.187 | 0.164 | 0.154 | 0.435 | 0.534 | 0.465 | 0.378 | 0.382 | 0.906 | 1.1 | 0.867 | 1.06 | 0.733 | 1.02 | 1.15 | 1.06 | 1.01 | 0.821
8 | COR-L 105 | 0.423 | 0.321 | 0.366 | 0.346 | 0.436 | 0.466 | 0.565 | 0.549 | 0.389 | 0.481 | 0.86 | 0.624 | 0.597 | 0.763 | 0.684 | 0.932 | 1.14 | 0.924 | 0.851 | 0.902
9 | Calu-6 |  |  |  |  |  |  |  |  |  |  | 0.796 | 0.933 | 0.939 | 0.895 | 0.825 | 0.991 | 1.13 | 1.01 | 1.01 | 0.891
10 | ChaGo-K-1 | 0.241 | 0.225 | 0.213 | 0.222 | 0.238 | 0.485 | 0.389 | 0.508 | 0.422 | 0.384 | 1.03 | 0.567 | 0.949 | 0.755 | 0.431 | 1.05 | 0.995 | 0.923 | 0.935 | 0.912
11 | EBC-1 |  |  |  |  |  |  |  |  |  |  | 0.447 | 0.417 | 0.402 | 0.333 | 0.231 | 0.945 | 0.84 | 1.06 | 0.985 | 0.663
12 | EKVX |  | 0.453 | 0.372 | 0.363 | 0.322 |  | 0.255 | 0.189 | 0.215 | 0.199 | 0.951 | 1.1 | 0.865 | 0.777 | 0.702 | 0.946 | 1.03 | 0.862 | 0.923 | 0.844
13 | EMC-BAC-2 | 0.257 | 0.242 | 0.318 | 0.274 | 0.257 | 0.505 | 0.515 | 0.524 | 0.436 | 0.479 | 1.13 | 1.11 | 1.1 | 1.27 | 1.09 | 0.978 | 0.894 | 1.03 | 0.654 | 0.811
14 | EPLC-272H | 0.247 | 0.231 | 0.297 | 0.181 | 0.153 | 0.329 | 0.335 | 0.295 | 0.219 | 0.333 | 1.24 | 0.987 | 1.12 | 1.28 | 1.12 | 0.982 | 0.876 | 0.863 | 0.863 | 0.844
15 | H3255 | 0.588 | 0.645 | 0.585 | 0.507 | 0.604 | 0.357 | 0.357 | 0.368 | 0.322 | 0.348 | 0.656 | 0.558 | 0.512 | 0.436 | 0.46 | 1.07 | 0.94 | 1.08 | 0.965 | 0.888
16 | HARA | 0.0937 | 0.0958 | 0.111 | 0.782 | 0.0956 | 0.424 | 0.423 | 0.469 | 0.47 | 0.393 | 1.13 | 1.23 | 1.11 | 1.16 | 1.07 | 0.927 | 1.08 | 1.01 | 0.945 | 0.844
17 | HCC-15 | 0.403 | 0.502 | 0.372 | 0.443 | 0.331 | 0.491 | 0.519 | 0.419 | 0.383 | 0.352 | 0.719 | 0.77 | 0.677 | 0.718 | 0.491 | 1.04 | 1.06 | 0.925 | 0.926 | 0.764
18 | HCC-44 | 0.858 | 1.19 | 0.969 | 0.861 | 0.791 | 0.309 | 0.126 | 0.375 | 0.0882 | 0.174 | 1.05 | 0.934 | 0.957 | 1.07 | 1.03 | 1 | 1.05 | 1.01 | 0.931 | 0.899
